Test results reported in PMC8011784, “Chronic peptide-based GIP receptor inhibition exhibits modest glucose metabolic changes in mice when administered either alone or combined with GLP-1 agonism” (PLoS ONE, 2021).

Legend:
DIO mice [1] = assay: Chronic GIPA-2 study: circulating lipids, liver and fat depots in DIO mice; type: in vivo, mouse; conditions: day 28, n = 10
Experimental: For studying the chronic effects of GIPA-2, male C57BL/6JRj mice (n = 40) were fed a HFD (SSNIFF® diet #12492) for 43 weeks. DIO mice were randomized (n = 10 per group) based on baseline blood glucose and body weight. Liraglutide was dissolved in PBS plus 0.1% BSA (Vehicle1) and GIPA-2 in PBS (vehicle 2). Mice received one of the following four treatments daily for 28 days while still maintained on HFD: (1) vehicle 1 (SC) and vehicle 2 (SC); (2) 0.2 mg/kg liraglutide (SC) and vehicle 2; (3) vehicle 1 (SC) and 10 mg/kg GIPA-2 (SC); and (4) 0.2 mg/kg liraglutide (SC) plus 10 mg/kg GIPA-2 (SC). GIPA-2 dose levels were selected based on doses shown to sufficiently antagonize insulinotropic actions of exogenous GIP in acute IPGTT studies (Fig 1J) adjusted for single daily dosing over the 4-week treatment period. Fasted (4 hrs) blood glucose and insulin were measured on study day -4, 10 and 26. An OGTT was performed on day 17. On the day of the OGTT the fasted animals (4 hrs) received their daily doses of vehicles, liraglutide and GIPA-2 one hour before receiving a glucose bolus (2 g/kg). Blood glucose was measured before their daily dosing and at 0, 15, 30 60, 120, 180 and 240 min after glucose administration. An insulin tolerance test (ITT) was performed on day 24. Fasting (4 hrs) mice received their daily doses of vehicles, liraglutide and GIPA-2 one hour before receiving insulin (0.5 U/kg, intraperitoneal injection). Blood glucose was measured before their daily dosing and at 0, 15, 30 60, 120, 180 min after glucose administration. Similar measurements were performed as in the GIPA-1 study. […]
Fasting blood glucose was measured using a BIOSEN c-Line glucose meter (EKF-Diagnostics), insulin was measured using the Meso Scale Diagnostics platform, TG and TC were measured using commercial kits (Roche Diagnostics) on the Cobas C-501 autoanalyzer (Roche), and FFA levels were measured using a Wako Chemicals kit on the Cobas C-501 autoanalyzer, all according to the manufacturers’ instructions. Homeostatic model assessment of insulin resistance (HOMA-IR) was calculated using the following equation: [fasting serum glucose (mmol/L) × fasting serum insulin (pmol/L) / 22.5] to assess insulin resistance.
Fig 4 The effect of GIPR antagonism alone or in combination with liraglutide on lipid homeostasis in DIO mice. […] Statistical analysis was calculated using one-way ANOVA with Dunnett’s post-hoc test. *: p< 0.05, **: p < 0.01, ***: p < 0.001, ****: p<0.0001 compared to vehicle.
Supplementary file pone.0249239.s002.tif: S2 Fig The effect of GIPR antagonists alone or in combination with liraglutide on lipid homeostasis in DIO mice. […] Statistical analysis was calculated using one-way ANOVA with Dunnett’s post-hoc test. *: p< 0.05, **: p < 0.01, ***: p < 0.001, ****: p<0.0001 compared to vehicle. […]

DIO mice [2] = assay: Chronic GIPA-2 study: insulin tolerance test (ITT) in DIO mice; type: in vivo, mouse; conditions: day 24; insulin 0.5 U/kg ip one hour after daily dose; liraglutide 0.2 mg/kg SC, GIPA-2 10 mg/kg SC; n = 10
Experimental: For studying the chronic effects of GIPA-2, male C57BL/6JRj mice (n = 40) were fed a HFD (SSNIFF® diet #12492) for 43 weeks. DIO mice were randomized (n = 10 per group) based on baseline blood glucose and body weight. Liraglutide was dissolved in PBS plus 0.1% BSA (Vehicle1) and GIPA-2 in PBS (vehicle 2). Mice received one of the following four treatments daily for 28 days while still maintained on HFD: (1) vehicle 1 (SC) and vehicle 2 (SC); (2) 0.2 mg/kg liraglutide (SC) and vehicle 2; (3) vehicle 1 (SC) and 10 mg/kg GIPA-2 (SC); and (4) 0.2 mg/kg liraglutide (SC) plus 10 mg/kg GIPA-2 (SC). […] Fasted (4 hrs) blood glucose and insulin were measured on study day -4, 10 and 26. […] Blood glucose was measured before their daily dosing and at 0, 15, 30 60, 120, 180 and 240 min after glucose administration. […] Blood glucose was measured before their daily dosing and at 0, 15, 30 60, 120, 180 min after glucose administration. […]
Fig 3 Effects of GIPA-1 and GIPA-2 on oral glucose tolerance and insulin responses in DIO mice. […] Statistical analysis was calculated using two-way ANOVA with Tukey’s post-hoc test and one-way ANOVA with Dunnett’s post-hoc test. *: p< 0.05, **: p < 0.01, ***: p < 0.001, ****: p<0.0001 compared to vehicle.

## liraglutide
DIO mice [1]
  circulating total cholesterol (TC): significantly reduced circulating TC and liver TG concentrations
  liver TG: significantly reduced circulating TC and liver TG concentrations
  plasma FFA: no effect on either plasma TG or concentrations of circulating FFA
  plasma TG: no effect on either plasma TG or concentrations of circulating FFA
DIO mice [2]
  insulin sensitivity (ITT): improved insulin sensitivity produced by liraglutide
